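Protocol summary: plate cells (96-well), add compound at 5 concentrations, incubate 48 h, interpolate endpoints linearly. TGI marks complete inhibition of growth.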

The assay deals with P388/ADR leukemia. As to the kind of experiment: NCI tumour cell line growth inhibition, 48 h.
`CC(C)NC(=O)OCc1c(COC(=O)NC(C)C)c(-c2ccc(Cl)c(Cl)c2)n2c1CCC2` had a TGI greater than 100 µM.
The value for `COC1=C2C[C@@H](C)C[C@@H](OC)[C@@H](O)[C@H](C)/C=C(\C)[C@@H](OC(N)=O)[C@H](OC)/C=C\C=C(/C)C(=O)NC(=CC1=O)C2=O` was 1.47 µM.
The value for `OCC1OC(n2cnc3c2NC=NC[C@H]3O)CC1O` (stereo partly drawn) was 448 µM.

These data come from PubChem BioAssay (NCI).
